Source: article PMC8092228 (mBio, 2021)

Experiments:
[1] = target: T1, LOV-PAS-HK (full-length LOV-HK) (Brucella abortus, UniProt Q2YKK7)
T1 construct: gene BAB2_0652

LOV-PAS = target: T2, LOV-PAS (Brucella abortus, UniProt Q2YKK7)
T2 construct: gene BAB2_0652
T2 sequence (Q2YKK7 15-273 limits assumed): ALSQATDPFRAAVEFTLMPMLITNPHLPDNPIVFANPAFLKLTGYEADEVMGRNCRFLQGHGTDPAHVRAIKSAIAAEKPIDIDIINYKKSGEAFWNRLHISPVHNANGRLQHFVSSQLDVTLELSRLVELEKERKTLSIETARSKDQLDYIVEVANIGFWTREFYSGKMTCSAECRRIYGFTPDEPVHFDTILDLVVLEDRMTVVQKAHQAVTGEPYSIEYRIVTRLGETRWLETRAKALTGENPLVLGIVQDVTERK

T1 sequence (Q2YKK7 15-489 limits assumed): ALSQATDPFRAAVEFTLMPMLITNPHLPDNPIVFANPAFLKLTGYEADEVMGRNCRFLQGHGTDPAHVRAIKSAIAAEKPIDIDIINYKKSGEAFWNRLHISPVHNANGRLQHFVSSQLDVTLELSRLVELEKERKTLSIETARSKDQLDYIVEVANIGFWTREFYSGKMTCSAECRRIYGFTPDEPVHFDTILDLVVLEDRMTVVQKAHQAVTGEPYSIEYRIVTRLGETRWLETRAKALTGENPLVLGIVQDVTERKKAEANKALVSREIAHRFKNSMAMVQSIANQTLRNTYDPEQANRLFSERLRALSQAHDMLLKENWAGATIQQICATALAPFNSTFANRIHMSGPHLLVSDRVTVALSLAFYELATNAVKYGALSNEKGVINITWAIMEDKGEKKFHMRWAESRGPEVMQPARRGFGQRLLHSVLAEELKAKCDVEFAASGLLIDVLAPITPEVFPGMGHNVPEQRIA

Structure (SMILES): Cc1cc2nc3c(=O)[nH]c(=O)nc-3n(C[C@H](O)[C@H](O)[C@H](O)COP(=O)(O)O)c2cc1C [FMN]
- X-ray crystal structure 3.25 A [1]: the electron densities associated with the FMN chromophores are fused into the protein moiety
- X-ray crystal structure, 2.74 A (dark), 2.80 A (light) (LOV-PAS): the FMN ligand is clearly separated from the protein moiety in the electron density map
